Like-named read-outs stand apart in the source and are kept apart here.
Columns and labels:
HeLa MCTS [1] = experiment: 3D MCTS growth inhibition assay; type: cell-based, human; conditions: dark; 1–7 and H2TPP 20 μM, cisplatin 10 μM and 30 μM
Protocol: MCTS were treated with the sample (20 μM 1–7, 20 μM tetraphenylporphyrin H2TPP, 10 μM cisplatin, 30 μM cisplatin, 2% DMSO, v%) by replacing 50% of the media with drug supplemented media in the dark for 3 days. After this time, the MCTS were exposed to a 1-Photon (500 nm, 16.7 min, 10.0 mW cm^−2, and 10 J cm^−2) irradiation using a LED light source or 2-Photon (800 nm, 10 J cm^−2 with a section interval of 5 μm) irradiation using a LSM 880 (Carl Zeiss) laser scanning confocal microscope equipped with a Coherent Chameleon 2-Photon laser. The cell culture media was replaced every 2 days. The integrity and diameter of the MCTs was monitored with an Axio Observer Z1 (Carl Zeiss) phase contrast microscope every 24 h.

HeLa MCTS [2] = experiment: (Photo-)cytotoxicity on 3D MCTS (ATP concentration); type: cell-based, human; conditions: 1-3 as chloride salts
Protocol: The cytotoxicity of the compounds in 3D MCTS was assessed by measurement of the ATP concentration. MCTS were treated with increasing concentrations of the compound (2% DMSO, v%) by replacing 50% of the media with drug supplemented media and incubation for 12 h. After this time, the MCTS were divided in three identical groups. The first group was strictly kept in the dark. The second group was exposed to a 1-Photon irradiation (500 nm, 16.7 min, 10.0 mW cm^−2, and 10 J cm^−2) using a LED light source and the third group was exposed to a 2-Photon irradiation (800 nm, 10 J cm^−2 with a section interval of 5 μm) using a LSM 880 (Carl Zeiss, Germany) laser scanning confocal microscope equipped with a Coherent Chameleon 2-Photon laser. After the irradiation, all groups were incubated additional 48 h. The ATP concertation was measured using a CellTiter-Glo 3D Cell Viability kit (Promega) by measuring the generated chemiluminescence with an infinite M200 PRO (Tecan) plate reader.

[3] = Photostability (absorption spectra upon irradiation); type: physicochemical; conditions: 450 nm, 0 to 10 min (13.2 J cm^−2), air-saturated acetonitrile
Protocol: The sample was prepared in an air-saturated acetonitrile solution. Using a Atlas Photonics LUMOS BIO irradiator, the sample was constantly irradiated at 450 nm in time intervals from 0 to 10 min (13.2 J cm^−2). The absorption spectra from 350 to 700 nm was monitored with a SpectraMax M2 Microplate Reader (Molecular Devices) at each time interval. As positive and negative controls, respectively, [Ru(2,2′-bipyridine)3]Cl2 and Protoporphyrin IX were used.

[4] = test system: noncancerous retinal pigment epithelium (RPE-1) cells; experiment: (Photo-)cytotoxicity on 2D cell monolayers, RPE-1
Protocol: (§1) A total of 4 × 10^3 cells were seeded on 96-well plates and allowed to adhere overnight. The cells were treated with increasing concentrations of the sample diluted in cell media achieving a total volume of 200 μL. The cells were incubated with the sample for 8 h and, after this time, the medium refreshed. To study the phototoxic effect of the sample, the cells were exposed to 480 nm (spectral half-width: 20 nm, 10 min, 5.2 mW cm^−2, 3.1 J cm^−2) or 540 nm (spectral half-width: 30 nm, 40 min, 4.0 mW cm^−2, 9.5 J cm^−2) light using an Atlas Photonics LUMOS BIO irradiator. To study the dark cytotoxicity of the sample, the cells were not irradiated and the medium exchanged. The cells were grown for an additional 40 h at 37 °C. After this time, the medium was replaced with fresh medium containing resazurin with a final concentration of 0.2 mg mL^−1. The cells were incubated for 4 h and the amount of the fluorescent product resorufin determined (λex = 540 nm, λem = 590 nm) with a SpectraMax M2 Microplate Reader (Molecular Devices). The obtained data was analyzed with the GraphPad Prism software.

[5] = test system: mouse colon carcinoma (CT-26) cells
Protocol: as §1

[6] = test system: human cervical carcinoma (HeLa) cells; experiment: (Photo-)cytotoxicity on 2D cell monolayers, HeLa; type: cell-based; conditions: for IC50: 1-3 as chloride salts
Protocol: as §1

[7] = test system: noncancerous retinal pigment epithelium (RPE-1) cells
Protocol: as §1

[8] = test system: human glioblastoma astrocytoma (U373) cells; experiment: (Photo-)cytotoxicity on 2D cell monolayers, U373;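 also: Resazurin-to-resorufin fluorescence viability readout, 8 h compound exposure then medium change, light dose 3.1 J cm^−2 at 480 nm or 9.5 J cm^−2 at 540 nm, analysed 40 h later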
Protocol: as §1

[9] = test system: mouse colon carcinoma (CT-26) cells; experiment: (Photo-)cytotoxicity on 2D cell monolayers, CT-26
Protocol: as §1

[10] = test system: human glioblastoma astrocytoma (U373) cells;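 also: Resazurin-to-resorufin fluorescence viability readout, 8 h compound exposure then medium change, light dose 3.1 J cm^−2 at 480 nm or 9.5 J cm^−2 at 540 nm, analysed 40 h later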
Protocol: as §1

[11] = design: method as in PMID 10907495; conditions: cited from earlier work
[12] = design: method as in earlier work; conditions: acetonitrile; cited from earlier work
[13] = Homo sapiens, dark, read-out: IC50 dark

Q: What does the source list for C1=Cc2nc1c(-c1ccccc1)c1nc(c(-c3ccccc3)c3ccc([nH]3)c(-c3ccccc3)c3ccc([nH]3)c2-c2ccccc2)C=C1 [H2TPP, tetraphenylporphyrin, reference compound]?
A: tumor growth inhibition effect (MCTS volume) (HeLa MCTS [1]): do not show any inhibitory effect; IC50 (HeLa MCTS [2]; [13]): > 100 µM; IC50 (HeLa MCTS [2]; Homo sapiens, light or radiation study, 1P 500 nm, read-out: IC50 1P irradiation (500 nm, 10 J cm-2)): > 100 µM; IC50 (HeLa MCTS [2]; Homo sapiens, light or radiation study, 2P 800 nm, section interval 5 μm, read-out: IC50 2P irradiation (800 nm, 10 J cm-2)): > 100 µM

Q: For C=CC1=C(C)c2cc3[nH]c(cc4nc(cc5[nH]c(cc1n2)c(C)c5CCC(=O)O)C(CCC(=O)O)=C4C)c(C)c3C=C [PpIX, Protoporphyrin IX, reference compound], which “photostability (change of absorption spectra upon irradiation)” value [3] is on record?
A: drastically changed

Q: And the IC50 ([4]; Homo sapiens, RPE-1, 40 min, read-out: IC50 540 nm (40 min, 9.5 J cm-2))?
A: 3.3 µM

Q: And the IC50 ([4]; Homo sapiens, RPE-1, read-out: IC50 dark)?
A: > 100 µM

Q: What about the “PI (480 nm)” value ([4]; RPE-1, dark vs 480 nm) of the same compound?
A: > 26.3

Q: And the “PI (540 nm)” value ([4]; RPE-1, dark vs 540 nm)?
A: > 30.3

Q: And the IC50 [5]?
A: 3.5 µM

Q: What about the IC50 ([6]; Homo sapiens, 10 min, 480 nm, read-out: IC50 480 nm (10 min, 3.1 J cm-2)) of the same compound?
A: 2.5 µM

Q: What about the IC50 ([6]; Homo sapiens, 40 min, 540 nm, read-out: IC50 540 nm (40 min, 9.5 J cm-2)) of the same compound?
A: 2.1 µM

Q: And the IC50 [6, 13]?
A: > 100 µM

Q: And the “PI (480 nm)” value ([6]; dark vs 480 nm)?
A: > 40.0

Q: And the “PI (540 nm)” value ([6]; dark vs 540 nm)?
A: > 47.6

Q: What about the IC50 [7] of the same compound?
A: 3.8 µM

Q: And the IC50 ([8]; Homo sapiens, U373 MG, 10 min, read-out: IC50 480 nm (10 min, 3.1 J cm-2))?
A: 3.3 µM

Q: What about the IC50 ([8]; Homo sapiens, U373 MG, read-out: IC50 dark) of the same compound?
A: > 100 µM

Q: What about the “PI (480 nm)” value ([8]; U373, dark vs 480 nm) of the same compound?
A: > 30.3

Q: What about the “PI (540 nm)” value ([8]; U373, dark vs 540 nm) of the same compound?
A: > 27.8

Q: And the “PI (480 nm)” value ([9]; CT-26, dark vs 480 nm)?
A: > 28.6

Q: And the “PI (540 nm)” value ([9]; CT-26, dark vs 540 nm)?
A: > 24.4

Q: What about the IC50 ([9]; Mus musculus, CT26, 40 min, read-out: IC50 540 nm (40 min, 9.5 J cm-2)) of the same compound?
A: 4.1 µM

Q: What about the IC50 ([9]; Mus musculus, CT26, read-out: IC50 dark) of the same compound?
A: > 100 µM

Q: And the IC50 [10]?
A: 3.6 µM

Q: Which “Φ, singlet oxygen quantum yield of the reference” value [11] does the source give for O=C([O-])c1c(Cl)c(Cl)c(Cl)c(Cl)c1-c1c2cc(I)c(=O)c(I)c-2oc2c(I)c([O-])c(I)cc12.[Na+].[Na+] [Rose Bengal] here?
A: 76%

Q: Which “Φem, luminescence quantum yield of the reference” value [12] does the source give for [Cl-].[Cl-].[Ru+2].c1ccc(-c2ccccn2)nc1.c1ccc(-c2ccccn2)nc1.c1ccc(-c2ccccn2)nc1 [[Ru(2,2′-bipyridine)3]Cl2] here?
A: 5.9%

Q: With N.N.[Cl][Pt][Cl] [cisplatin, reference compound] as the compound, how does the “tumor growth inhibition effect (MCTS volume)” value (HeLa MCTS [1]) read?
A: weak effect on the tumor growth

Q: And the IC50 ([4]; read-out: IC50 dark, RPE-1, dark, 1-3 as chloride salts)?
A: 29.3 µM

Q: What about the IC50 ([6]; dark, read-out: IC50 dark) of the same compound?
A: 10.5 µM

Q: What about the IC50 (HeLa MCTS [2]; dark, read-out: IC50 dark) of the same compound?
A: 18.6 ± 1.3 µM

Q: What about the IC50 ([8]; read-out: IC50 dark, U373, dark, 1-3 as chloride salts) of the same compound?
A: 17.6 µM

Q: What about the IC50 ([9]; read-out: IC50 dark, CT-26, dark, 1-3 as chloride salts) of the same compound?
A: 6.5 µM

— PMC7320011, “Rationally designed ruthenium complexes for 1- and 2-photon photodynamic therapy” (Nature Communications, 2020)
